# Target: RpfF (Xanthomonas campestris, UniProt Q7CLS3)
# Assay: HPLC and LC-MS of product formed by purified His-tagged RpfF
# Format: biochemical
# Settings: formed from 3-hydroxydodecanoyl-ACP (dehydratase and thioesterase); Tris-HCl pH 7.5, ATP, Mg2+, Vibrio harveyi AasS; 37 °C, 30 min
# Chain of RpfF (Q7CLS3 entry or part of it): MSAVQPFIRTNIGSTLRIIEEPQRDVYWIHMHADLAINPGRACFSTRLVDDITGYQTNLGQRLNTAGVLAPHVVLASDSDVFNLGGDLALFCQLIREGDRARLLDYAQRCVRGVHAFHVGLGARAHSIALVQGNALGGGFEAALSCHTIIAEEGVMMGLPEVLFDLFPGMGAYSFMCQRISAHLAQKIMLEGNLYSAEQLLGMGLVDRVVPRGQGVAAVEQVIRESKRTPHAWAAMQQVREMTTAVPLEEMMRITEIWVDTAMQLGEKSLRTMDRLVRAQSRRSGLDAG
compound,measurement,value
"CCCCCCCCC/C=C\C(=O)O [BDSF, cis-2-dodecenoic acid]",HPLC and LC-MS of product formed by purified His-tagged RpfF,detected in the reaction mixture containing RpfF and 3-OH-C12:0-ACP

# Reference: publication PMC4542539, “The Multiple DSF-family QS Signals are Synthesized from Carbohydrate and Branched-chain Amino Acids via the FAS Elongation Cycle” (Scientific Reports, 2015)
